Data: paper PMC4660440 (Scientific Reports, 2015)
Like-named read-outs stand apart in the source and are kept apart here.

Experiments:
Type in all cases: cell-based
[1] = tested on: HeLa; assay: MTT cytotoxicity assay, HeLa; details: drug exposure 48 h, mean ± SD (n = 3), read-out: Cytotoxic activity (IC50) HeLa
Protocol: (§1) HeLa, BGC823, A-549, MCF-7 and HT-7702 cell lines were obtained from the ATCC. […] Tumor cells (3500–13,000) were seeded into 96-well microtest plates in 100 μL of culture medium per well, incubated for 48 h in the presence or absence of test compounds (8 different concentrations ranging from 100 to 0.01 μg/mL). For quantitative estimation of cytotoxicity, the (MTT) method was used, essentially performed as described previously. Briefly, cells were washed twice with PBS, fixed for 15 min in 1% glutaraldehyde solution, rinsed twice in PBS, and stained in 0.5% MTT solution for 4 h at 37 °C. […] The initial seeding densities varied among the cell lines to ensure a final absorbance reading in control (untreated) cultures within the range of 0.6–0.8 A492 units. Drug exposure was carried out for 2 days, and the IC50 value, i.e., the drug concentration that decreased the absorbance by 50%, was extrapolated from dose-response data. Each test was performed in triplicate, and the absorbance readings between the triplicates varied by no more than 10%.

[2] = tested on: BGC-823; assay: MTT cytotoxicity assay, BGC-823; details: Homo sapiens, BGC-823, drug exposure 48 h, mean ± SD (n = 3), read-out: Cytotoxic activity (IC50) BGC-823
Protocol: as §1

[3] = tested on: A549; assay: MTT cytotoxicity assay, A549; details: Homo sapiens, A549, drug exposure 48 h, mean ± SD (n = 3), read-out: Cytotoxic activity (IC50) A549
Protocol: as §1

[4] = tested on: MCF-7; assay: MTT cytotoxicity assay, MCF-7; details: Homo sapiens, MCF7, drug exposure 48 h, mean ± SD (n = 3), read-out: Cytotoxic activity (IC50) MCF-7
Protocol: as §1

[5] = MTT cytotoxicity assay, normal hepatic cell line HL-7702; details: HL-7702 normal hepatic cells, human normal hepatic immortal cell line, drug exposure 48 h, mean ± SD (n = 3), read-out: Cytotoxic activity (IC50) HL-7702
Protocol: as §1

| Compound | IC50 ([1]; Homo sapiens, HeLa, 48 h) | IC50 [2] | IC50 [3] | IC50 [4] | IC50 at 48 h [5] | IC50 [1] |
| --- | --- | --- | --- | --- | --- | --- |
| COc1cc([C@@H]2c3cc4c(cc3[C@@H](Nc3ccccc3Br)[C@H]3COC(=O)[C@H]23)OCO4)cc(OC)c1O [2′] | 31.3 ± 1.43 µM | 28.7 ± 1.04 µM | 44.9 ± 3.12 µM | 27.6 ± 0.91 µM | 47.4 ± 3.14 µM | – |
| COc1cc([C@@H]2c3cc4c(cc3[C@@H](Nc3ccccc3)[C@H]3COC(=O)[C@H]23)OCO4)cc(OC)c1OC [Compound 1] | 35.1 ± 1.03 µM | 86.5 ± 4.21 µM | 43.2 ± 3.32 µM | – | 41.8 ± 2.47 µM | – |
| COc1cc([C@@H]2c3cc4c(cc3[C@@H](Nc3ccccc3)[C@H]3COC(=O)[C@H]23)OCO4)cc(OC)c1O [Compound 1′] | 44.34 ± 0.34 µM | 68.2 ± 4.13 µM | 42.5 ± 5.11 µM | 26.8 ± 0.67 µM | 53.4 ± 4.34 µM | – |
| COc1cc([C@@H]2c3cc4c(cc3[C@@H](Nc3ccccc3Br)[C@H]3COC(=O)[C@H]23)OCO4)cc(OC)c1OC [Compound 2] | 26.6 ± 2.03 µM | 17.9 ± 0.98 µM | 35.1 ± 2.37 µM | 29.1 ± 1.78 µM | 65.9 ± 2.37 µM | – |
| COc1cc([C@@H]2c3cc4c(cc3[C@@H](Nc3ccccc3Cl)[C@H]3COC(=O)[C@H]23)OCO4)cc(OC)c1OC [Compound 3] | 26.7 ± 1.32 µM | 18.1 ± 1.03 µM | 27.2 ± 1.95 µM | 21.1 ± 0.76 µM | 13.2 ± 1.35 µM | – |
| COc1cc([C@@H]2c3cc4c(cc3[C@@H](Nc3ccccc3Cl)[C@H]3COC(=O)[C@H]23)OCO4)cc(OC)c1O [Compound 3′] | 23.4 ± 1.4 µM | 23.1 ± 1.87 µM | 20.5 ± 0.42 µM | 37.5 ± 1.03 µM | 2.42 ± 0.71 µM | – |
| COc1cc([C@@H]2c3cc4c(cc3[C@@H](Nc3ccccc3F)[C@H]3COC(=O)[C@H]23)OCO4)cc(OC)c1OC [Compound 4] | 22.1 ± 0.81 µM | 22.7 ± 0.97 µM | 16.8 ± 1.22 µM | 16.1 ± 0.17 µM | 16 ± 0.66 µM | – |
| COc1cc([C@@H]2c3cc4c(cc3[C@@H](Nc3ccccc3F)[C@H]3COC(=O)[C@H]23)OCO4)cc(OC)c1O [Compound 4′] | 20.7 ± 0.75 µM | 17.8 ± 0.34 µM | 15.6 ± 1.75 µM | 15.3 ± 0.42 µM | 31.5 ± 2.81 µM | – |
| COc1cc([C@@H]2c3cc4c(cc3[C@@H](Nc3cccc(Br)c3)[C@H]3COC(=O)[C@H]23)OCO4)cc(OC)c1OC [Compound 5] | 9.01 ± 0.11 µM | 11.2 ± 3.61 µM | 13.4 ± 2.54 µM | 8.35 ± 0.42 µM | 13.58 ± 0.11 µM | – |
| COc1cc([C@@H]2c3cc4c(cc3[C@@H](Nc3cccc(Br)c3)[C@H]3COC(=O)[C@H]23)OCO4)cc(OC)c1O [Compound 5′] | 8.83 ± 0.12 µM | 13.6 ± 0.16 µM | 11.8 ± 0.74 µM | 10.7 ± 1.48 µM | 44.3 ± 1.78 µM | – |
| COc1cc([C@@H]2c3cc4c(cc3[C@@H](Nc3cccc(Cl)c3)[C@H]3COC(=O)[C@H]23)OCO4)cc(OC)c1OC [Compound 6] | 5.43 ± 0.27 µM | 9.32 ± 1.79 µM | 7.23 ± 0.95 µM | 6.57 ± 0.15 µM | 35.27 ± 0.21 µM | – |
| COc1cc([C@@H]2c3cc4c(cc3[C@@H](Nc3cccc(Cl)c3)[C@H]3COC(=O)[C@H]23)OCO4)cc(OC)c1O [Compound 6′] | 5.13 ± 0.05 µM | 6.59 ± 0.21 µM | 5.03 ± 1.07 µM | 4.75 ± 0.37 µM | 32.5 ± 0.86 µM | – |
| COc1cc([C@@H]2c3cc4c(cc3[C@@H](Nc3cccc(F)c3)[C@H]3COC(=O)[C@H]23)OCO4)cc(OC)c1OC [Compound 7] | 3.12 ± 0.18 µM | 5.21 ± 1.32 µM | 6.8 ± 0.31 µM | 4.05 ± 0.26 µM | 29.9 ± 0.74 µM | – |
| COc1cc([C@@H]2c3cc4c(cc3[C@@H](Nc3cccc(F)c3)[C@H]3COC(=O)[C@H]23)OCO4)cc(OC)c1O [Compound 7′] | 5.07 ± 0.31 µM | 2.24 ± 0.06 µM | 3.88 ± 0.33 µM | 3.14 ± 0.15 µM | 21.4 ± 1.57 µM | – |
| COc1cc([C@@H]2c3cc4c(cc3[C@@H](Nc3ccc(Br)cc3)[C@H]3COC(=O)[C@H]23)OCO4)cc(OC)c1OC [Compound 8] | 42.1 ± 0.91 µM | 46.2 ± 2.97 µM | 52.9 ± 4.36 µM | 19.7 ± 0.62 µM | 27.1 ± 2.31 µM | – |
| COc1cc([C@@H]2c3cc4c(cc3[C@@H](Nc3ccc(Br)cc3)[C@H]3COC(=O)[C@H]23)OCO4)cc(OC)c1O [Compound 8′] | 21.07 ± 0.17 µM | 62.1 ± 4.39 µM | 62.4 ± 3.66 µM | 28.9 ± 1.06 µM | 32.1 ± 0.96 µM | – |

| Compound | IC50 ([1]; Homo sapiens, HeLa, 48 h) | IC50 [2] | IC50 [3] | IC50 [4] | IC50 at 48 h [5] | IC50 [1] |
| --- | --- | --- | --- | --- | --- | --- |
| COc1cc([C@@H]2c3cc4c(cc3[C@@H](Nc3ccc(Cl)cc3)[C@H]3COC(=O)[C@H]23)OCO4)cc(OC)c1OC [Compound 9] | 21.32 ± 0.11 µM | 23.1 ± 1.74 µM | 22.8 ± 1.08 µM | 19.3 ± 1.43 µM | 41.6 ± 3.11 µM | – |
| COc1cc([C@@H]2c3cc4c(cc3[C@@H](Nc3ccc(Cl)cc3)[C@H]3COC(=O)[C@H]23)OCO4)cc(OC)c1O [Compound 9′] | 16.7 ± 1.31 µM | 14.3 ± 1.14 µM | 29.8 ± 0.75 µM | 37.68 ± 0.16 µM | 15.8 ± 1.17 µM | – |
| COc1cc([C@@H]2c3cc4c(cc3[C@@H](Nc3ccc(F)cc3)[C@H]3COC(=O)[C@H]23)OCO4)cc(OC)c1OC [Compound 10] | 17.51 ± 0.04 µM | 17 ± 0.18 µM | 12.1 ± 0.63 µM | 7.06 ± 0.37 µM | 27.4 ± 1.98 µM | – |
| COc1cc([C@@H]2c3cc4c(cc3[C@@H](Nc3ccc(F)cc3)[C@H]3COC(=O)[C@H]23)OCO4)cc(OC)c1O [Compound 10′] | 16.32 ± 0.09 µM | 28.61 ± 0.06 µM | 17.7 ± 0.47 µM | 9.84 ± 0.73 µM | 29.6 ± 2.33 µM | – |
| COc1ccccc1N[C@@H]1c2cc3c(cc2[C@@H](c2cc(OC)c(OC)c(OC)c2)[C@H]2C(=O)OC[C@@H]21)OCO3 [Compound 11] | 13.4 ± 1.31 µM | 14.2 ± 0.98 µM | 14.1 ± 0.37 µM | 10.2 ± 0.61 µM | 37.5 ± 1.75 µM | – |
| COc1ccccc1N[C@@H]1c2cc3c(cc2[C@@H](c2cc(OC)c(O)c(OC)c2)[C@H]2C(=O)OC[C@@H]21)OCO3 [Compound 11′] | 13.5 ± 1.38 µM | 9.68 ± 0.17 µM | 8.68 ± 0.29 µM | 9.42 ± 0.24 µM | 63.57 ± 0.19 µM | – |
| COc1cccc(N[C@@H]2c3cc4c(cc3[C@@H](c3cc(OC)c(OC)c(OC)c3)[C@H]3C(=O)OC[C@@H]32)OCO4)c1 [Compound 13] | 11.6 ± 0.83 µM | 12.7 ± 1.06 µM | 12.4 ± 0.38 µM | 13.8 ± 3.98 µM | 38.8 ± 2.37 µM | – |
| COc1cccc(N[C@@H]2c3cc4c(cc3[C@@H](c3cc(OC)c(O)c(OC)c3)[C@H]3C(=O)OC[C@@H]32)OCO4)c1 [Compound 13′] | 12.3 ± 0.74 µM | 13.8 ± 1.42 µM | 7.27 ± 2.38 µM | 11 ± 1.26 µM | 39.8 ± 2.73 µM | – |
| COc1ccc(Br)cc1N[C@@H]1c2cc3c(cc2[C@@H](c2cc(OC)c(OC)c(OC)c2)[C@H]2C(=O)OC[C@@H]21)OCO3 [Compound 14] | 7.07 ± 0.63 µM | 6.26 ± 0.36 µM | 6.85 ± 0.75 µM | 4.97 ± 0.03 µM | 87.6 ± 4.13 µM | – |
| COc1ccc(Br)cc1N[C@@H]1c2cc3c(cc2[C@@H](c2cc(OC)c(O)c(OC)c2)[C@H]2C(=O)OC[C@@H]21)OCO3 [Compound 14′] | 6.47 ± 0.17 µM | 22.2 ± 2.02 µM | 54.3 ± 4.49 µM | 4.21 ± 0.25 µM | 87.6 ± 5.04 µM | – |
| COc1ccc(Cl)cc1N[C@@H]1c2cc3c(cc2[C@@H](c2cc(OC)c(OC)c(OC)c2)[C@H]2C(=O)OC[C@@H]21)OCO3 [Compound 15] | 2.64 ± 0.04 µM | 3.86 ± 0.29 µM | 1.71 ± 0.26 µM | 2.24 ± 0.14 µM | 19.3 ± 1.34 µM | – |
| COc1ccc(Cl)cc1N[C@@H]1c2cc3c(cc2[C@@H](c2cc(OC)c(O)c(OC)c2)[C@H]2C(=O)OC[C@@H]21)OCO3 [Compound 15′] | 5.89 ± 0.48 µM | 27.1 ± 1.17 µM | 29.7 ± 1.67 µM | 2.16 ± 0.37 µM | 67.6 ± 4.32 µM | – |
| COc1ccc(F)cc1N[C@@H]1c2cc3c(cc2[C@@H](c2cc(OC)c(OC)c(OC)c2)[C@H]2C(=O)OC[C@@H]21)OCO3 [Compound 16] | 1.46 ± 0.19 µM | 1.37 ± 0.17 µM | 1.43 ± 0.09 µM | 1.92 ± 0.23 µM | 27.7 ± 0.77 µM | – |
| COc1ccc(F)cc1N[C@@H]1c2cc3c(cc2[C@@H](c2cc(OC)c(O)c(OC)c2)[C@H]2C(=O)OC[C@@H]21)OCO3 [Compound 16′] | 1.72 ± 0.3 µM | 1.32 ± 0.16 µM | 3.17 ± 0.49 µM | 1.53 ± 0.07 µM | 24.3 ± 0.69 µM | – |
| COc1cc([C@@H]2c3cc4c(cc3[C@@H](O[C@@H]3O[C@@H]5CO[C@@H](C)O[C@H]5[C@H](O)[C@H]3O)[C@H]3COC(=O)[C@H]23)OCO4)cc(OC)c1O [Etoposide, reference compound] | 59.4 ± 2.45 µM | 25.5 ± 1.42 µM | 20.1 ± 1.95 µM | 25.3 ± 1.93 µM | 24.6 ± 3.82 µM | 59.4 ± 2.45 µM |
